# Results reported in patent US20240317725A1, “LPA1 SMALL MOLECULE ANTAGONIST” (TUOJIE BIOTECH (SHANGHAI) CO., LTD., priority 2021, published 2024).
# Biological target: T1, human lysophosphatidic acid receptor 1 (LPAR1) (Homo sapiens, UniProt Q92633)
# T1 construct: host or cells: CHO-K1 (Chinese hamster ovary K1) cells, CHO-K1/LPA1R, kept under hygromycin B selection
# Test: FLIPR test of antagonist properties: inhibition of LPA-induced intracellular calcium elevation in CHO-K1 cells expressing hLPAR1
# Format: cell-based
# Conditions: FLIPR calcium assay, CHO-K1/LPA1R cells, LPA at EC80
# Method: The antagonist properties of the compounds of the present disclosure were tested using the FLIPR (fluorometric imaging plate reader) method. The compounds are inhibitors of intracellular calcium elevation induced by activation of hLPARI (human lysophosphatidic acid receptor 1) expressed in CHO-K1 cells (Chinese hamster ovary K1 cells, HDB).
# 2.1. Reaction buffer: HBSS+20 mM HEPES+0.1% fatty acid-free BSA+0.001% F-127
# 2.2. 50×Red dye: (a red dye for blocking background signals in cells) prepared by: weighing out 4 g of tartrazine and 10.2 g of acid red and dissolving them in 100 mL of H2O.
# 2.3. Fluo-8 staining mixture: 4 mL of reaction buffer, 32 μL of fluo-8, 320 μL of 50×Red dye, and 40 μL of probenecid.
# 3.1. LPA: dissolved in DPBS (containing 0.1% fatty acid-free BSA) to prepare a 0.8 μM stock solution, and the solution was aliquoted and stored at −20° C.
# 3.2. Test compound preparation: The test compounds were dissolved in DMSO to prepare 10 mM stock solutions, and the solutions were stored at −20° C. In the experiment, the compounds were first gradient-diluted with DMSO (initial concentration of 50 μM, 3-fold dilution, 10 points) to prepare 200×compound solutions. The compound solutions were then diluted with reaction buffer to give 5×compound solutions, and the solutions were transferred to a 384-well plate (Cat. No. 6008590) using Bravo.
# 4.1. CHO-K1/LPA1R cells were cultured in a cell culture medium (F-12+10% FBS+400 μg/mL hygromycin B).
# 4.2. When the cell confluence reached 80%, the cells were digested with 0.25% pancreatin.
# 4.3. When the cells became round, the digestion was stopped with the medium F-12 (10% FBS), and the cells were counted. Then the cell culture was diluted with F-12 (10% FBS) to give a cell suspension with a density of 6.7×10^5 cells/mL.
# 4.4. The cell suspension was added to a 384-well black cell culture plate at 30 µL/well using a Multidrop auto-dispenser, and the plate was incubated in a 37° C., 5% CO2 incubator for 20-24 h. The medium was changed to a serum-free F-12 medium, and the cells were starved for 24 h.
# 4.5. Dose experiment for testing LPA. Gradient dilutions of 6×LPA solution (initial concentration of 60 μM, 3-fold dilution, 10 points) were prepared with reaction buffer. The medium in the 384-well black cell culture plate was discarded and changed to reaction buffer. 10 μL of 5% DMSO reaction buffer was added, and 10 μL of Fluo-8 staining mixture was then added. The plate was incubated in the dark in a 37° C., 5% CO2 incubator for 0.5 h.
# 4.6. FLIPR was correspondingly programmed, the 6×LPA gradient solutions were added, and readings were taken. Two-minute data were collected.
# 4.7. A reaction curve was obtained from the numerical values of LPA, and the concentration of LPA at EC80 was calculated. A 6×LPA solution was prepared in a 384-well plate (Cat. No. 6008590), and HPE and ZPE were added to corresponding wells. HPE (one hundred per cent effect) was 60 μM LPA, and ZPE (zero per cent effect) was reaction buffer.
# 4.8. Testing of compounds. The medium in the 384-well black cell culture plate was discarded and changed to reaction buffer. 10 μL of 5×compound solution was transferred using Bravo, and then 10 μL of Fluo-8 staining mixture was added immediately. The plate was incubated in the dark in a 37° C., 5% CO2 incubator for 0.5 h.
# 4.9. FLIPR was correspondingly programmed, the 6×LPA solution was added, and readings were taken. Two-minute data were collected.
# 4.10. Finally, the output fluorescence counts were analyzed, and IC50 was calculated for the compounds.
# T1 sequence (Q92633 whole entry): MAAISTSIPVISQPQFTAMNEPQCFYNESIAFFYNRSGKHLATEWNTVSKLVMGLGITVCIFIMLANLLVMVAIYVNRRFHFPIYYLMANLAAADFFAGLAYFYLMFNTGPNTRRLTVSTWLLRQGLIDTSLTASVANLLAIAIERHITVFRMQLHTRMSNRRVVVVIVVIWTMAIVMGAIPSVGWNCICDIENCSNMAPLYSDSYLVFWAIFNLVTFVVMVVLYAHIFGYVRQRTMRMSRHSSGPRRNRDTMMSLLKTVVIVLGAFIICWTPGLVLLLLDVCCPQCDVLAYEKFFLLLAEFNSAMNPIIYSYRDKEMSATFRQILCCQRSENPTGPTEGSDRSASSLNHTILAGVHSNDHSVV
row,SMILES,IC50 [nM]
1,"CCCN(C)C(=O)OCc1c(-c2ccc(O[C@H]3CCC[C@H](C(=O)O)C3)c(C)n2)nnn1C [BMS986278, reference compound]",60.6
2,"Cc1nc(-c2nnn(C)c2COc2nccc(C(F)(F)F)n2)ccc1OC1CC2CCC(C(=O)O)C2C1 (stereo not shown) [Compound 1, 5-((2-Methyl-6-(1-methyl-5-(((4-(trifluoromethyl)pyrimidin-2-yl)oxy)methyl)-1H-1,2,3-triazol-4-yl)pyridin-3-yl)oxy)octahydropentalene-1-carboxylic acid]",16.7
3,"Cc1nc(-c2nnn(C)c2COc2nccc(C(F)F)n2)ccc1OC1CC2CCC(F)(C(=O)O)C2C1 (stereo not shown) [Compound 6, 5-((6-(5-(((4-(Difluoromethyl)pyrimidin-2-yl)oxy)methyl)-1-methyl-1H-1,2,3-triazol-4-yl)-2-methylpyridin-3-yl)oxy)-1-fluorooctahydropentalene-1-carboxylic acid]",39.6
4,"Cc1nc(-c2nnn(C)c2COc2nccc(C(F)F)n2)ccc1OC1CC2CCC(C(=O)O)C2C1 (stereo not shown) [Compound 7, 5-((6-(5-(((4-(Difluoromethyl)pyrimidin-2-yl)oxy)methyl)-1-methyl-1H-1,2,3-triazol-4-yl)-2-methylpyridin-3-yl)oxy)octahydropentalene-1-carboxylic acid]",93.9

# Continued, values first:
row,IC50 [nM],SMILES
1,41.5,"COCc1ccnc(OCc2c(-c3ccc(OC4CC5CCC(C)(C(=O)O)C5C4)c(C)n3)nnn2C)n1 (single isomer, unassigned) [Compound 14-P1, 5-((6-(5-(((4-(Methoxymethyl)pyrimidin-2-yl)oxy)methyl)-1-methyl-1H-1,2,3-triazol-4-yl)-2-methylpyridin-3-yl)oxy)-1-methyloctahydropentalene-1-carboxylic acid]"
2,> 10000,"COCc1ccnc(OCc2c(-c3ccc(OC4CC5CCC(C)(C(=O)O)C5C4)c(C)n3)nnn2C)n1 (single isomer, unassigned) [Compound 14-P2, 5-((6-(5-(((4-(Methoxymethyl)pyrimidin-2-yl)oxy)methyl)-1-methyl-1H-1,2,3-triazol-4-yl)-2-methylpyridin-3-yl)oxy)-1-methyloctahydropentalene-1-carboxylic acid]"
3,75,"Cc1nc(-c2nnn(C)c2COc2nccc(C(F)(F)F)n2)ccc1O[C@H]1CCC[C@H](C(=O)O)C1 [Compound 12, (1S,3S)-3-((2-Methyl-6-(1-methyl-5-(((4-(trifluoromethyl)pyrimidin-2-vl)oxy)methyl)-1H-1,2,3-triazol-4-yl)pyridin-3-yl)oxy)cyclohexane-1-carboxylic acid]"
